Test in all cases: cells
Assay [1] relates to L929sAhFas. On the set-up: high-content necroptosis screen, percentage PI-positive nuclei as percent of DMSO plus stimulus control. An excerpt: To identify novel inhibitors or regulators of necroptosis, 500 small compounds from libraries targeting autophagy, kinases, phosphatases, proteases and redox balance were screened for their ability to block TNF-induced necroptosis in murine L929sAhFas cells. Three conditions were used to induce necroptosis in L929 cells: TNF alone, TNF+TAK1 inhibitor (TAK1i) and TNF+zVAD-fmk, a pan-caspase inhibitor. Inhibition of TAK1 or caspases sensitizes to necroptosis.[13], [32] Necroptosis, measured as the percentage of PI-positive nuclei normalized to the plate-specific DMSO control, was determined for each compound (Supplementary Figure 1A). […] After compound treatment, L929sAhFas (a) or L929 (b) cells were stimulated with mTNF (T), mTNF+Tak1i (TiT) or mTNF+zVAD (zVT) (Supplementary Figure 1A and B). (a) Cell death percentage (% PI-positive nuclei) or cell loss was calculated as percent of control (DMSO+stimulus). […] (b) Cell loss (luminescence-based readout for ATP) was calculated as percent of control (DMSO+stimulus). […] In stimulated conditions, % PI-positive nuclei was determined as % of DMSO control. Data represent mean values±S.E.M. of two independent experiments. Cells were stained with Hoechst and PI and percentage PI-positive nuclei was determined using high-content image analysis (BD pathway Bioimager). (d) L929sAhFas cells were treated with Sorafenib (concentration as indicated) for 24 h. Then, stimulus was removed, 50 cells/condition seeded and colonies counted with crystal violet staining after 10 days incubation. […] Schemes of workflow screening assays in L929 cell lines. (A) Scheme of the workflow of a high-content screening assay on L929sAhFas cells using mTNF (T) and mTNF+Tak1i ((5Z)-7-Oxozeaenol) (TiT) to induce necroptotic cell death. Nec-1 and zVAD-fmk were used as protective and sensitizing benchmarks, respectively, on all plates. (B) Scheme of the workflow of a CellTiter-Glo luminescent cell viability screening assay on L929 cells using mTNF+zVAD (zVT) to induce necroptotic cell death. Supplementary Figure S2. Z’ calculation for cell death screening assays in L929 cells. (A) Z’ calculation for cell death screening assay (Fig. 1A) in mTNF-stimulated L929sAhFas cells. (B) Z’ calculation for cell death screening assay (Fig. 1A) in L929sAhFas cells stimulated with mTNF + Taki.

The subject of assay [2] is L929sAhFas. Also noted: high-content necroptosis screen, percentage PI-positive nuclei as percent of DMSO plus stimulus control. To be noted: mTNF-induced cell death, validation screen; read-out: Validation screen IC50 (µM) (TNF). The source says: To identify novel inhibitors or regulators of necroptosis, 500 small compounds from libraries targeting autophagy, kinases, phosphatases, proteases and redox balance were screened for their ability to block TNF-induced necroptosis in murine L929sAhFas cells. Three conditions were used to induce necroptosis in L929 cells: TNF alone, TNF+TAK1 inhibitor (TAK1i) and TNF+zVAD-fmk, a pan-caspase inhibitor. Inhibition of TAK1 or caspases sensitizes to necroptosis.[13], [32] Necroptosis, measured as the percentage of PI-positive nuclei normalized to the plate-specific DMSO control, was determined for each compound (Supplementary Figure 1A). Z’ values for the TNF- and TNF+TAK1i-induced cell death assay were 0.498 and 0.919, respectively (Supplementary Figures 2A and B), indicating good assay performance. Sorafenib was identified as an effective inhibitor of both TNF- and TNF+TAK1i-induced necroptosis (Figure 1a). […] In an independent screening with 437 FDA-approved drugs and TNF+zVAD-fmk as necroptosis trigger in L929 cells (Supplementary Figure 1B), Sorafenib was also shown to be a potent inhibitor (Figure 1b). […] After compound treatment, L929sAhFas (a) or L929 (b) cells were stimulated with mTNF (T), mTNF+Tak1i (TiT) or mTNF+zVAD (zVT) (Supplementary Figure 1A and B). (a) Cell death percentage (% PI-positive nuclei) or cell loss was calculated as percent of control (DMSO+stimulus). Green points marked by the green dotted line represent a selection of kinase inhibitors from the screening on L929sAhFas cells (Supplementary Table 1), that are only slightly protective in the TNF-stimulated condition. (b) Cell loss (luminescence-based readout for ATP) was calculated as percent of control (DMSO+stimulus). […] In stimulated conditions, % PI-positive nuclei was determined as % of DMSO control. Data represent mean values±S.E.M. of two independent experiments. Cells were stained with Hoechst and PI and percentage PI-positive nuclei was determined using high-content image analysis (BD pathway Bioimager). (d) L929sAhFas cells were treated with Sorafenib (concentration as indicated) for 24 h. Then, stimulus was removed, 50 cells/condition seeded and colonies counted with crystal violet staining after 10 days incubation. Quantification was performed using ImageJ. n=2, a representative experiment is shown Legends supplementary figures Supplementary Figure S1. Schemes of workflow screening assays in L929 cell lines. (A) Scheme of the workflow of a high-content screening assay on L929sAhFas cells using mTNF (T) and mTNF+Tak1i ((5Z)-7-Oxozeaenol) (TiT) to induce necroptotic cell death. Nec-1 and zVAD-fmk were used as protective and sensitizing benchmarks, respectively, on all plates. (B) Scheme of the workflow of a CellTiter-Glo luminescent cell viability screening assay on L929 cells using mTNF+zVAD (zVT) to induce necroptotic cell death. Supplementary Figure S2. Z’ calculation for cell death screening assays in L929 cells. (A) Z’ calculation for cell death screening assay (Fig. 1A) in mTNF-stimulated L929sAhFas cells. (B) Z’ calculation for cell death screening assay (Fig. 1A) in L929sAhFas cells stimulated with mTNF + Taki.

Assay [3] has as its system L929sAhFas. On the set-up: species or system L929sAhFas or MEF; protection from TNF-induced cell death, percentage PI-positive nuclei by high-content imaging. To be noted: mTNF; inhibition of induced cell death. As for the experimental part:
Figure 2 Sorafenib inhibits TNF-induced RIPK1-dependent cell death in both murine and human cell lines and rescues AML cells from Smac mimetic-induced necroptosis. […] (c,d) HT-29 and Jurkat FADD−/− cells were pretreated for 1 h with DMSO, Nec-1 or Sorafenib (concentrations as indicated) and stimulated for 6 h with 30 ng/ml hTNF, 1 μM BV6 and 30 μM zVAD (HT-29) or stimulated for 10 h with 100 ng/ml hTNF (Jurkat FADD−/−). (a-d) Data were normalized to DMSO-treated control cells and represent the mean value±S.E.M. of three independent experiments. Toxic concentrations were removed from the analysis. L929sAhFas and MEF cells were stained with Hoechst and PI and percentage PI-positive nuclei was determined using high-content image analysis (BD pathway Bioimager). For HT-29 and Jurkat FADD−/− cells, cell death was determined by PI staining and flow cytometry. […] Cell death in AML cells was determined by PI staining and flow cytometry. Mean and S.D. of three independent experiments performed in triplicate are shown To confirm the inhibition of TNF-induced necroptosis by Sorafenib, we tested a panel of murine (L929sAhFas and MEF) and human cell lines (HT-29, Jurkat FADD^-/-, and two AML cell lines MV4-11 and Molm13). Smac mimetic BV6[34] instead of TAK1i was used as a sensitizer for testing of mouse embryonic fibroblasts (MEF) and human cell lines. […]

The next assay deals with MV4-11. On the set-up: species or system Jurkat FADD-/-, HT-29, MV4-11 or Molm13; protection from induced necroptosis, cell death by PI staining and flow cytometry. Particulars: Homo sapiens, BV6 + zVAD, inhibition of induced cell death. As for the experimental part: (§1) Figure 2 Sorafenib inhibits TNF-induced RIPK1-dependent cell death in both murine and human cell lines and rescues AML cells from Smac mimetic-induced necroptosis. […] (c,d) HT-29 and Jurkat FADD−/− cells were pretreated for 1 h with DMSO, Nec-1 or Sorafenib (concentrations as indicated) and stimulated for 6 h with 30 ng/ml hTNF, 1 μM BV6 and 30 μM zVAD (HT-29) or stimulated for 10 h with 100 ng/ml hTNF (Jurkat FADD−/−). (a-d) Data were normalized to DMSO-treated control cells and represent the mean value±S.E.M. of three independent experiments. Toxic concentrations were removed from the analysis. L929sAhFas and MEF cells were stained with Hoechst and PI and percentage PI-positive nuclei was determined using high-content image analysis (BD pathway Bioimager). For HT-29 and Jurkat FADD−/− cells, cell death was determined by PI staining and flow cytometry. […] Cell death in AML cells was determined by PI staining and flow cytometry. Mean and S.D. of three independent experiments performed in triplicate are shown Supplementary materials and methods Immunoblotting. After treatments, cells were washed twice with PBS and lysed with Laemmli buffer (2x) directly or with NP-40 lysis buffer (150 mM NaCl, 1% NP-40, 10% glycerol, 10 mM Tris-HCl pH 8) supplemented with EDTA-free protease inhibitor cocktail tablets (Roche Diagnostics, Basel, Switzerland, #11873580001) and phosphatase inhibitor cocktail tablets (Roche Diagnostics, #04906837001). After lysis with NP-40 lysis buffer, lysates were kept 10 minutes on ice and centrifugated in a microcentrifuge (10 min, 13.000 rpm, 4°C). Supernatant was used for SDS-PAGE and immunoblotting. FACS analysis. FACS analysis was used to measure dying HT-29, Jurkat FADD-/- and AML cells. Treated HT-29 cells were harvested, washed with PBS and incubated with Annexin V binding buffer (BD Biosciences, 556454) containing 7-AAD and Annexin V-FITC for 15 min according to the manufacturer’s protocol. FACSCalibur^TM Flow Cytometer (BD Biosciences) and CellQuest Pro software were used to perform experiments and analyze data respectively.

The test system of the next assay is Molm13. On the set-up: species or system Jurkat FADD-/-, HT-29, MV4-11 or Molm13; protection from induced necroptosis, cell death by PI staining and flow cytometry. To be noted: Homo sapiens, MOLM-13; BV6 + zVAD; inhibition of induced cell death. As for the experimental part: as §1
In a further assay the test system is MEF. On the set-up: species or system L929sAhFas or MEF; protection from TNF-induced cell death, percentage PI-positive nuclei by high-content imaging. Particulars: Mus musculus. As for the experimental part:
(c,d) HT-29 and Jurkat FADD−/− cells were pretreated for 1 h with DMSO, Nec-1 or Sorafenib (concentrations as indicated) and stimulated for 6 h with 30 ng/ml hTNF, 1 μM BV6 and 30 μM zVAD (HT-29) or stimulated for 10 h with 100 ng/ml hTNF (Jurkat FADD−/−). (a-d) Data were normalized to DMSO-treated control cells and represent the mean value±S.E.M. of three independent experiments. Toxic concentrations were removed from the analysis. L929sAhFas and MEF cells were stained with Hoechst and PI and percentage PI-positive nuclei was determined using high-content image analysis (BD pathway Bioimager). For HT-29 and Jurkat FADD−/− cells, cell death was determined by PI staining and flow cytometry. […] Cell death in AML cells was determined by PI staining and flow cytometry. […] Smac mimetic BV6[34] instead of TAK1i was used as a sensitizer for testing of mouse embryonic fibroblasts (MEF) and human cell lines. […] Since Sorafenib is used to treat AML,[27] we also included two AML cell lines to investigate whether it alters the sensitivity of these cells to necroptotic stimuli (BV6 in the presence of zVAD-fmk).[34]

Where [4] appears, read: read-out: cell death TNF/Taki (POC).

This is an account of results in paper PMC5520944 (Cell Death & Disease, 2017).

Broadly, the IC50 is the point on the concentration scale where inhibition reaches its midpoint.

Read-outs that look alike come from different tables or passages of the source.

Consider `N#C/C(=C\c1ccc(O)c(O)c1)C(=O)NCc1ccccc1` [AG-490], for which the results for the activity at 10 µM with L929sAhFas [1] (read-out: cell death TNF (POC)) and with L929sAhFas [1] (setting [4]) were 74.2% and 97.3%, respectively. Also, the IC50 with L929sAhFas [2] is 87.3 µM.
As for `CN1C(=O)NC(Cc2c[nH]c3c(Cl)cccc23)C1=O` (centres unmarked) [Nec-1s], the IC50 in the assay with L929sAhFas [3] was found to be 0.24 ± 0.12 µM; in the assay with MV4-11, 0.15 ± 0.01 µM; in the assay on Molm13, 0.28 ± 0.17 µM; with MEF (mTNF + BV6 + zVAD, inhibition of induced cell death), 0.63 ± 0.25 µM; with MEF (mTNF + BV6, inhibition of induced cell death) it was 0.38 ± 0.05 µM.
With `CC(C)(C)c1cc(C=C(C#N)C#N)cc(C(C)(C)C)c1O` [TYRPHOSTIN 9], the activity at 10 µM in the assay with L929sAhFas [1] (read-out: cell death TNF (POC)) is 41.8%; with L929sAhFas [1] (setting [4]) it was 95.8%. In addition, in the assay on L929sAhFas [2], the IC50 amounted to 4.45 µM.
For the molecule `COc1cc2ncc(-c3ccccc3)nc2cc1OC` [AG-1296], the activity at 10 µM with L929sAhFas [1] (read-out: cell death TNF (POC)) was 77.6%; in the assay with L929sAhFas [1] (setting [4]), 93.6%. Besides, in the assay with L929sAhFas [2], the IC50 is 33.2 µM.
On to `CN(C)c1ccc(/C=C2\C(=O)Nc3ccccc32)cc1` [SU 4312], for which the figures for the activity at 10 µM in the assay on L929sAhFas [1] (read-out: cell death TNF (POC)) and with L929sAhFas [1] (setting [4]) were 69.6% and 96.8%, respectively. In the assay on L929sAhFas [2], the IC50 is 26.4 µM.
Consider `N#C/C(=C\c1ccc(O)c(O)c1)C(=O)Nc1ccccc1` [AG-494], for which the activity at 10 µM in the assay on L929sAhFas [1] (read-out: cell death TNF (POC)) amounted to 58.6%; in the assay on L929sAhFas [1] (setting [4]), 95.8%. For the same molecule, the IC50 with L929sAhFas [2] amounted to 32.3 µM.
